Columns and labels:
[1] = system: T1, yeast α-glucosidase; experiment: p-nitrophenyl alpha-D-glucopyranoside hydrolysis, absorbance at […] nm; type: biochemical; settings: unreliable (a separate IC50 is printed for each sample concentration; this row is the 5 mg/mL one); 5 mM pNPG; 100 mM phosphate pH 6.8; 37 °C; 20 min; enzyme source contradictory (yeast or intestinal)
T1 construct: gene MAL12; commercial native enzyme, Sigma-Aldrich; assay text says yeast, reagent list says intestinal

[2] = target: T2, porcine pancreatic lipase (PL) enzyme type II (Sus scrofa, UniProt P00591); experiment: p-nitrophenyl butyrate hydrolysis, absorbance at […] nm; type: biochemical; settings: unreliable (a separate IC50 is printed for each sample concentration; this row is the 5 mg/mL one); crude enzyme; pNPB 10 mM stock in acetonitrile; Tris-HCl pH 7.4; 37 °C; 5 min preincubation
T2 construct: gene PNLIP
T2 sequence (P00591 1-450): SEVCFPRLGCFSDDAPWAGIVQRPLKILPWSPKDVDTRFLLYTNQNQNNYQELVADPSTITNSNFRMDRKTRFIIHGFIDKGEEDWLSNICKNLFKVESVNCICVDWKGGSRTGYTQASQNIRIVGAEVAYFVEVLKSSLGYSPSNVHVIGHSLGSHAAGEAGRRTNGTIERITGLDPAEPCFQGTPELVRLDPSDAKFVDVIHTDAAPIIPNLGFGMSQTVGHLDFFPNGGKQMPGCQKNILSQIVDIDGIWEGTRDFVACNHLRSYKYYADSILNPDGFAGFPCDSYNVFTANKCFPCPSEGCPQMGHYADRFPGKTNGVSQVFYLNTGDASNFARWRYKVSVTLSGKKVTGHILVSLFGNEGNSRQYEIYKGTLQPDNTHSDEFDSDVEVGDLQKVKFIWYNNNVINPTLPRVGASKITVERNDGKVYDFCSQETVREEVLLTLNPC

SMILES | α-Glucosidase inhibitory Assay / Acarbose [1] [mg/mL] | Pancreatic Lipase (PL) Inhibition Assay / Orlistat [2] [mg/mL]
C[C@H]1O[C@H](O[C@H]2[C@H](O)[C@@H](O)[C@@H](O[C@H]3[C@H](O)[C@@H](O)C(O)O[C@@H]3CO)O[C@@H]2CO)[C@H](O)[C@@H](O)[C@@H]1N[C@H]1C=C(CO)[C@@H](O)[C@H](O)[C@H]1O (some centres unmarked) [Acarbose] | 0.16 | 
CCCCCCCCCCC[C@@H](C[C@@H]1OC(=O)[C@H]1CCCCCC)OC(=O)[C@H](CC(C)C)NC=O [Orlistat] |  | 0.08

— paper PMC11366232, “Metabolites profiling of Sapota fruit pulp via a multiplex approach of gas and ultra performance liquid chromatography/mass spectroscopy in relation to its lipase inhibition effect” (PeerJ, 2024)
